The molecules below were run against Factor D (Homo sapiens, UniProt P00746) (assay: Factor D esterolytic assay (Z-Lys-SBzl thioester substrate, DTNB, 405 nm)). Details: substrate Z-Lys-SBzl 1.29 mM, 100 mM HEPES, 500 mM NaCl, pH 7.5, 10% DMSO, tested a minimum of three times.
Assay type: biochemical
Summary of the method: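 Human Factor D hydrolysis of Z-Lys-SBzl (1.29 mM) monitored at 405 nm via DTNB thiol detection for 600 s, 690 nm background subtracted. Buffer 100 mM HEPES, 500 mM NaCl, pH 7.5, 10% DMSO; substrate added immediately or after room-temperature preincubation. IC50 from percent inhibition of rate, at least three tests.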

Factor D, sequence (P00746 26-253): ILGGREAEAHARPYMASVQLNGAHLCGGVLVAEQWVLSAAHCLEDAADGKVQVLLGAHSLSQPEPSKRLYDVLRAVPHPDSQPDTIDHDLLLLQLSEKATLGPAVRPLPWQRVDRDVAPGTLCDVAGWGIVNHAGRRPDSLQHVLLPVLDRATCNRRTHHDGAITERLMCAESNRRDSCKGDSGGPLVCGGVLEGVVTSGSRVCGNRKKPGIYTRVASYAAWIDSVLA

| Structure (SMILES) | IC50 |
| --- | --- |
| Cc1ncc(-c2cc(C)c3c(c2)c2c(N)ncnc2n3CC(=O)N2[C@@H]3C[C@@H]3C[C@H]2C(=O)Nc2nc(Br)ccc2C)cn1 [Compound 310a, (1R,3S,5R)-2-(2-(4-amino-8-methyl-6-(2-methylpyrimidin-5-yl)-9H-pyrimido[4,5-b]indol-9-yl)acetyl)-N-(6-bromo-3-methylpyridin-2-yl)-2-azabicyclo[3.1.0]hexane-3-carboxamide] | < 100 nM |
| Cc1ccc2c(c1)c1c(N)ncnc1n2CC(=O)N1C[C@H](F)C[C@H]1C(=O)Nc1cccc(Br)n1 [Compound 21a, (2S,4R)-1-(2-(4-amino-6-methyl-9H-pyrimido[4,5-b]indol-9-yl)acetyl)-N-(6-bromopyridin-2-yl)-4-fluoropyrrolidine-2-carboxamide] | < 100 nM |
| CC1(C)CC(O)CC(NC(=O)[C@@H]2C[C@H]3C[C@H]3N2C(=O)Cn2cnc3c(N)ncnc32)C1 (mixture of isomers) [Compound 106b, (1R,3S,5R)-2-(2-(6-amino-9H-purin-9-yl)acetyl)-N-(5-hydroxy-3,3-dimethylcyclohexyl)-2-azabicyclo[3.1.0]hexane-3-carboxamide] | > 1000 nM |
| C[C@H]1C[C@@H](C(=O)Nc2cccc(Br)n2)N(C(=O)Cn2c3ccc(C(F)(F)F)cc3c3c(N)ncnc32)C1 [Compound 208d, (2S,4S)-1-(2-(4-amino-6-(trifluoromethyl)-9H-pyrimido[4,5-b]indol-9-yl)acetyl)-N-(6-bromopyridin-2-yl)-4-methylpyrrolidine-2-carboxamide] | < 100 nM |
| CC(O)c1ccc2c(c1)c1c(N)ncnc1n2CC(=O)N1[C@@H]2C[C@@H]2C[C@H]1C(=O)Nc1cccc(Br)n1 (stereo partly drawn) [Compound 170c, (1R,3S,5R)-2-(2-(4-amino-6-(1-hydroxyethyl)-9H-pyrimido[4,5-b]indol-9-yl)acetyl)-N-(6-bromopyridin-2-yl)-2-azabicyclo[3.1.0]hexane-3-carboxamide] | < 100 nM |
| COc1cc([N+](=O)[O-])cc2c3c(N)ncnc3n(CC(=O)N3[C@H](C(=O)Nc4cccc(Br)n4)C[C@@]4(C)C[C@@H]34)c12 [Compound 243a, (1R,3S,5R)-2-(2-(4-amino-8-methoxy-6-nitro-9H-pyrimido[4,5-b]indol-9-yl)acetyl)-N-(6-bromopyridin-2-yl)-5-methyl-2-azabicyclo[3.1.0]hexane-3-carboxamide] | < 100 nM |
| C[C@@]12C[C@@H](C(=O)Nc3cccc(Br)n3)N(C(=O)Cn3c4cc(-c5ccccc5)ccc4c4c(N)ncnc43)[C@@H]1C2 [Compound 228a, (1R,3S,5R)-2-(2-(4-amino-7-phenyl-9H-pyrimido[4,5-b]indol-9-yl)acetyl)-N-(6-bromopyridin-2-yl)-5-methyl-2-azabicyclo[3.1.0]hexane-3-carboxamide] | < 100 nM |
| Nc1ncnc2c1c1cc([N+](=O)[O-])ccc1n2CC(=O)N1[C@@H]2C[C@@H]2C[C@H]1C(=O)Nc1cccc(Br)n1 [Compound 188g, (1R,3S,5R)-2-(2-(4-amino-6-nitro-9H-pyrimido[4,5-b]indol-9-yl)acetyl)-N-(6-bromopyridin-2-yl)-2-azabicyclo[3.1.0]hexane-3-carboxamide] | < 100 nM |
| CC(C)(C)OC(=O)Nc1ccc2c3c(N)ncnc3n(CC(=O)N3[C@@H]4C[C@@H]4C[C@H]3C(=O)Nc3cccc(Br)n3)c2c1 [Compound 17f, tert-butyl (4-amino-9-(2-((1R,3S,5R)-3-((6-bromopyridin-2-yl)carbamoyl)-2-azabicyclo[3.1.0]hexan-2-yl)-2-oxoethyl)-9H-pyrimido[4,5-b]indol-7-yl)carbamate] | < 100 nM |
| Nc1ncnc2c1cc1n2C(C(=O)N2[C@@H](C(=O)Nc3cccc(Br)n3)C[C@@H]3C[C@@H]32)Oc2ccccc2-1 (single isomer, unassigned) [Compound 293b] | < 100 nM |
| COc1cc2c3c(N)ncnc3n(CC(=O)N3[C@H](C(=O)Nc4cccc(Br)n4)C[C@@]4(C)C[C@@H]34)c2cc1F [Compound 331a, (1R,3S,5R)-2-(2-(4-amino-7-fluoro-6-methoxy-9H-pyrimido[4,5-b]indol-9-yl)acetyl)-N-(6-bromopyridin-2-yl)-5-methyl-2-azabicyclo[3.1.0]hexane-3-carboxamide] | < 100 nM |
| CC1(C)C[C@@H](C(=O)Nc2cccc(Br)n2)N(C(=O)Cn2c3ccc(C(F)(F)F)cc3c3c(N)ncnc32)C1 [Compound 210d, (S)-1-(2-(4-amino-6-(trifluoromethyl)-9H-pyrimido[4,5-b]indol-9-yl)acetyl)-N-(6-bromopyridin-2-yl)-4,4-dimethylpyrrolidine-2-carboxamide] | 100 to 1000 nM |
| Nc1nccc2c1ccn2CC(=O)N1[C@@H]2C[C@@H]2C[C@H]1C(=O)NCc1cccc(Cl)c1F [Compound 88f, (1R,3S,5R)-2-(2-(4-amino-1H-pyrrolo[3,2-c]pyridin-1-yl)acetyl)-N-(3-chloro-2-fluorobenzyl)-2-azabicyclo[3.1.0]hexane-3-carboxamide] | > 1000 nM |
| COC(=O)c1cccc2c3c(N)ncnc3n(CC(=O)N3[C@H](C(=O)Nc4cccc(Br)n4)C[C@@]4(C)C[C@@H]34)c12 [Compound 223a, methyl 4-amino-9-(2-((1R,3S,5R)-3-((6-bromopyridin-2-yl)carbamoyl)-5-methyl-2-azabicyclo[3.1.0]hexan-2-yl)-2-oxoethyl)-9H-pyrimido[4,5-b]indole-8-carboxylate] | < 100 nM |
| Nc1ncnc2c1c(-c1c[nH]c3ccccc13)cn2CC(=O)N1C[C@H](F)C[C@H]1C(=O)NCc1cccc(Cl)c1F [Compound 126f, (2S,4R)-1-(2-(4-amino-5-(1H-indol-3-yl)-7H-pyrrolo[2,3-d]pyrimidin-7-yl)acetyl)-N-(3-chloro-2-fluorobenzyl)-4-fluoropyrrolidine-2-carboxamide] | 100 to 1000 nM |
| Cc1cc(-c2ccncc2)cc2c3c(N)ncnc3n(CC(=O)N3[C@H](C(=O)Nc4cccc(Br)n4)C[C@@]4(C)C[C@@H]34)c12 [Compound 264a, (1R,3S,5R)-2-(2-(4-amino-8-methyl-6-(pyridin-4-yl)-9H-pyrimido[4,5-b]indol-9-yl)acetyl)-N-(6-bromopyridin-2-yl)-5-methyl-2-azabicyclo[3.1.0]hexane-3-carboxamide] | < 100 nM |
| NCc1ccc2c(c1)c1c(N)ncnc1n2CC(=O)N1[C@@H]2C[C@@H]2C[C@H]1C(=O)Nc1cccc(Br)n1 [Compound 63d, (1R,3S,5R)-2-(2-(4-amino-6-(aminomethyl)-9H-pyrimido[4,5-b]indol-9-yl)acetyl)-N-(6-bromopyridin-2-yl)-2-azabicyclo[3.1.0]hexane-3-carboxamide] | < 100 nM |
| C[C@@]12C[C@@H](C(=O)Nc3cccc(Br)n3)N(C(=O)Cn3c4cc(Br)ccc4c4c(N)ncnc43)[C@@H]1C2 [Compound 200a, (1R,3S,5R)-2-(2-(4-amino-7-bromo-9H-pyrimido[4,5-b]indol-9-yl)acetyl)-N-(6-bromopyridin-2-yl)-5-methyl-2-azabicyclo[3.1.0]hexane-3-carboxamide] | < 100 nM |
| Cc1ncc(-c2cc(C)c3c(c2)c2c(N)ncnc2n3CC(=O)N2C[C@](C)(F)C[C@H]2C(=O)Nc2cccc(Br)n2)cn1 [Compound 316a, (2S,4R)-1-(2-(4-amino-8-methyl-6-(2-methylpyrimidin-5-yl)-9H-pyrimido[4,5-b]indol-9-yl)acetyl)-N-(6-bromopyridin-2-yl)-4-fluoro-4-methylpyrrolidine-2-carboxamide] | < 100 nM |
| COc1cc(Cl)cc2c3c(N)ncnc3n(CC(=O)N3[C@H](C(=O)Nc4cccc(Br)n4)C[C@@]4(C)C[C@@H]34)c12 [Compound 239a, (1R,3S,5R)-2-(2-(4-amino-6-chloro-8-methoxy-9H-pyrimido[4,5-b]indol-9-yl)acetyl)-N-(6-bromopyridin-2-yl)-5-methyl-2-azabicyclo[3.1.0]hexane-3-carboxamide] | < 100 nM |
| CNc1ncnc2c1cnn2CC(=O)N1CCC[C@H]1C(=O)NCc1cccc(Cl)c1F [Compound 76b, (S)—N-(3-chloro-2-fluorobenzyl)-1-(2-(4-(methylamino)-1H-pyrazolo[3,4-d]pyrimidin-1-yl)acetyl)pyrrolidine-2-carboxamide] | > 1000 nM |
| N#C[C@H]1C[C@@H](C(=O)Nc2cccc(Br)n2)N(C(=O)Cn2c3ccc(C(F)(F)F)cc3c3c(N)ncnc32)C1 [Compound 177d, (2S,4S)-1-(2-(4-amino-6-(trifluoromethyl)-9H-pyrimido[4,5-b]indol-9-yl)acetyl)-N-(6-bromopyridin-2-yl)-4-cyanopyrrolidine-2-carboxamide] | 100 to 1000 nM |
| Cc1cc(C(F)(F)F)cc2c3c(N)ncnc3n(CC(=O)N3C[C@](C)(F)C[C@H]3C(=O)Nc3cncc(Br)n3)c12 [Compound 305a, (2S,4R)-1-(2-(4-amino-8-methyl-6-(trifluoromethyl)-9H-pyrimido[4,5-b]indol-9-yl)acetyl)-N-(6-bromopyrazin-2-yl)-4-fluoro-4-methylpyrrolidine-2-carboxamide] | < 100 nM |
| Nc1ncnc2c1ncn2CC(=O)N1[C@@H]2C[C@@H]2C[C@H]1C(=O)NC1CCCC(Cl)(Cl)C1 (stereo partly drawn) [Compound 102b, (1R,3S,5R)-2-(2-(6-amino-9H-purin-9-yl)acetyl)-N-(3,3-dichlorocyclohexyl)-2-azabicyclo[3.1.0]hexane-3-carboxamide] | 100 to 1000 nM |
| Cc1cc(-c2ccncc2)cc2c3c(N)ncnc3n(CC(=O)N3[C@@H]4C[C@@H]4C[C@H]3C(=O)Nc3cccc(Br)n3)c12 [Compound 263c, (1R,3S,5R)-2-(2-(4-amino-8-methyl-6-(pyridin-4-yl)-9H-pyrimido[4,5-b]indol-9-yl)acetyl)-N-(6-bromopyridin-2-yl)-2-azabicyclo[3.1.0]hexane-3-carboxamide] | < 100 nM |
| Cc1cc(C(F)(F)F)cc2c3c(N)ncnc3n(CC(=O)N3[C@@H]4C[C@@H]4C[C@H]3C(=O)Nc3cccc(Br)n3)c12 [Compound 194a, (1R,3S,5R)-2-(2-(4-amino-8-methyl-6-(trifluoromethyl)-9H-pyrimido[4,5-b]indol-9-yl)acetyl)-N-(6-bromopyridin-2-yl)-2-azabicyclo[3.1.0]hexane-3-carboxamide] | < 100 nM |

— US12679843B2, “Pyrrolopyrimidine amines as complement inhibitors” (BioCryst Pharmaceuticals, Inc., priority 2020, dated 2026)
